A word on the IC50: it is the midpoint of a concentration-inhibition curve.

For 29 compounds, IC50 results are on record in patent publication US11192865B2, “Benzosulfonyl compounds” (Vivace Therapeutics, Inc., priority 2017, dated 2021).

Where only a bound is given, the exact number is not on record here.

The subject of the experiment is 8XTBD luciferase reporter. In words: YAP Reporter Assay. Type of experiment: cell-based. The following applies: Homo sapiens, HEK-293T; HEK293T cells stably transfected with 8XTBD luciferase reporter and pRLTK; 24-hr incubation; starting from 3 μM, 1:3 dilution, 10 points; read-out: Firefly Luciferase IC50. Here is the method: HEK293T cells stably transfected with 8XTBD luciferase reporter and pRLTK in 384-well plates were treated with the test compounds, starting from 3 μM (final concentration in assay plate), 1:3 dilution, and 10 points in quadruplicates. Post 24-hr incubation with compounds at 37° C. and 5% CO2, cells were lysed and 8XTBD-driven firefly luciferase and control TK-driven renilla luciferase activities were measured using Promega Dual-Luciferase Reporter Assay System.
Reagents: The reagents used for this study are: DMEM: Invitrogen #11960077, Dual-Glo Luciferase Assay System: Promega-E2980, Puromycin Dihydrochloride: Invitrogen-A1113803, 384-well plate: PerkinElmer-6007480, L-GLUTAMINE: Invitrogen-25030164, Hygromycin B: Invitrogen-10687010, and Penicillin-Streptomycin: Merk-TMS-AB2-C
Media: The media used for this assay were: Culture Medium: DMEM+1 ug/mL puromycin+200 ug/mL hygromycin (with 10% FBS+1 mM L-glutamine); and Assay Medium: DMEM (with 10% FBS+1 mM L-glutamine+1×P/S).
Cell Plating: The appropriate media was warmed at 37° C. by water bath: Culture Medium, Assay Medium, 1* D-PBS, 0.05% trypsin-EDTA. The cells were trypsinized after removing all media, then washed with 1* sterile D-PBS and then with 2 ml 0.05% trypsin-EDTA. The cells were then incubated at RT for one minute. Then 10 ml/75 cm2 flask Assay Medium was added to each flask. Using a 10 ml pipette, the cells were then gently resuspended in the media, until the clumps completely disappeared. The cells were then transferred into 50 ml centrifuge tubes and were centrifuged at 800 rpm for 5 mins. The medium was removed and the cells were resuspended with Assay Medium. An aliquot of cells was used to count the cell density (cells/ml). The cell suspension was then diluted with Assay Medium to a concentration of 6×10^4 cells/ml. 50 ul cells suspension was then plated to 384-well plate (PerkinElmer-6007480), 3×10^3 cells/well and the cells were incubated in an incubator at 37° C., 5% CO2.
Compound Treatment: In the afternoon (incubation of the plate with 3-4 hrs), the test compounds were added by Echo, starting from 3 uM (final concentration in the assay plate), 1:3 dilution, 10 points, quadruplicates. The plate was placed at 37° C., 5% CO2 incubator for 24 hrs.
Detection: The Dual-Glo Luciferase Reagent was prepared by transferring the contents of one bottle of Dual-Glo Luciferase Buffer to one bottle of Dual-Glo Luciferase Substrate to create the Dual-Glo Luciferase Reagent. Mixing was performed by inversion until the substrate was thoroughly dissolved. After mixing, the reagent was aliquoted into 15 ml tubes. In the afternoon (24 hrs post compound treatment), the DMEM+ medium in the 384 well plates were aspirated by Microplate Washer.
Measuring firefly luciferase activity: 20 ul Dual-Glo Luciferase Reagent was added to the 384-well plates. The plates were protected from light to prevent interference with the assay. The plates were shaken for 1 min followed centrifuging plates at 1000 rpm for 30 seconds. After waiting at least 10 minutes, the firefly luminescence was measured by Envision.
Measuring renilla luciferase activity: 20 ul Stop-Glo Reagent was added to the 384-well plates. The plates were shaken for 1 min and then centrifuged at 1000 rpm for 30 seconds. After waiting at least 10 minutes, the renilla luminescence was measured by Envision.
Compound IC50 and maximum inhibition on the firefly luciferase and renilla luciferase activities were reported separately.
In general terms: A reporter such as luciferase makes a cellular process visible.
As to `CNS(=O)(=O)c1ccc(NC2CCCCC2)c(-c2nnn(C3CCN(C(C)C)CC3)n2)c1` [Compound 46, 4-(cyclohexylamino)-3-(2-(1-isopropylpiperidin-4-yl)-2H-tetrazol-5-yl)-N-methylbenzenesulfonamide], the IC50 was above 3000 nM. The result for `CNS(=O)(=O)c1ccc(NC2CCCCC2)c(-c2nnn(C3CCN(C(=O)OC(C)C)CC3)n2)c1` [Compound 47, isopropyl 4-(5-(2-(cyclohexylamino)-5-(N-methylsulfamoyl)phenyl)-2H-tetrazol-2-yl)piperidine-1-carboxylate] reads above 3000 nM; that for `CNS(=O)(=O)c1ccc(NC2CCCCC2)c(-c2noc(C)n2)c1` [Compound 48, 4-(cyclohexylamino)-N-methyl-3-(5-methyl-1,2,4-oxadiazol-3-yl)benzene sulfonamide], at most 100 nM; that for `CNS(=O)(=O)c1ccc(NC2CCCCC2)c(-c2nnn(C3CN(C(C)=O)C3)n2)c1` [Compound 49, 3-(2-(1-acetylazetidin-3-yl)-2H-tetrazol-5-yl)-4-(cyclohexylamino)-N-methylbenzenesulfonamide], 100 to 1000 nM. The result for `CNS(=O)(=O)c1ccc(NC2CCCCC2)c(-c2nnn(C3CN(S(C)(=O)=O)C3)n2)c1` [Compound 50, 4-(cyclohexylamino)-N-methyl-3-(2-(1-(methylsulfonyl)azetidin-3-yl)-2H-tetrazol-5-yl)benzenesulfonamide] reads above 3000 nM. The result for `CNS(=O)(=O)c1ccc(NC2CCCCC2)c(-c2nnn(C3CN(c4ccccc4)C3)n2)c1` [Compound 51, 4-(cyclohexylamino)-N-methyl-3-(2-(1-phenylazetidin-3-yl)-2H-tetrazol-5-yl)benzenesulfonamide] reads above 3000 nM; that for `CNS(=O)(=O)c1ccc(NC2CCCCC2)c(-c2nnn(C3CN(C(C)C)C3)n2)c1` [Compound 52, 4-(cyclohexylamino)-3-(2-(1-isopropylazetidin-3-yl)-2H-tetrazol-5-yl)-N-methylbenzenesulfonamide], 100 to 1000 nM.

In the case of `CNS(=O)(=O)c1ccc(NC2CCCCC2)c(-c2nnn(C3CCCN(C(C)=O)C3)n2)c1` (centres unmarked) [Compound 53, 3-(2-(1-acetylpiperidin-3-yl)-2H-tetrazol-5-yl)-4-(cyclohexylamino)-N-methylbenzenesulfonamide], the concentration for half-maximal inhibition (IC50) was in the range of 100 to 1000 nM. The same measure for `CNS(=O)(=O)c1ccc(NC2CCCCC2)c(-c2nnn(C3CNC3)n2)c1` [Compound 54, 3-(2-(azetidin-3-yl)-2H-tetrazol-5-yl)-4-(cyclohexylamino)-N-methylbenzenesulfonamide]: above 3000 nM; for `CNS(=O)(=O)c1ccc(NC2CCCCC2)c(-c2cncnc2)c1` [Compound 55, 4-(cyclohexylamino)-N-methyl-3-(pyrimidin-5-yl)benzenesulfonamide]: above 3000 nM; for `CNS(=O)(=O)c1ccc(NC2CCCCC2)c(-c2ncccn2)c1` [Compound 56, 4-(cyclohexylamino)-N-methyl-3-(pyrimidin-2-yl)benzenesulfonamide]: at most 100 nM. The same measure for `CNS(=O)(=O)c1ccc(NC2CCCCC2)c(-c2ccn(C)n2)c1` [Compound 57, 4-(cyclohexylamino)-N-methyl-3-(1-methyl-1H-pyrazol-3-yl)benzenesulfonamide]: at most 100 nM. The result for `CNS(=O)(=O)c1ccc(NC2CCCCC2)c(-c2cn(C)nn2)c1` [Compound 58, 4-(cyclohexylamino)-N-methyl-3-(1-methyl-1H-1,2,3-triazol-4-yl)benzenesulfonamide] reads at most 100 nM; that for `CNS(=O)(=O)c1ccc(NC2CCCCC2)c(-c2nnn(C3CCCN(C(=O)OC(C)(C)C)C3)n2)c1` (centres unmarked) [Compound 59, tert-butyl 3-(5-(2-(cyclohexylamino)-5-(N-methylsulfamoyl)phenyl)-2H-tetrazol-2-yl)piperidine-1-carboxylate], 100 to 1000 nM; that for `CNS(=O)(=O)c1ccc(NC2CCCCC2)c(-c2nnnn2C2CCCN(C(=O)OC(C)(C)C)C2)c1` (centres unmarked) [Compound 60, tert-butyl 3-(5-(2-(cyclohexylamino)-5-(N-methylsulfamoyl)phenyl)-1H-tetrazol-1-yl)piperidine-1-carboxylate], above 3000 nM. `CNS(=O)(=O)c1ccc(NC2CCCCC2)c(-c2nnn(C3CCCN(C(C)C)C3)n2)c1` (centres unmarked) [Compound 61, 4-(cyclohexylamino)-3-(2-(1-isopropylpiperidin-3-yl)-2H-tetrazol-5-yl)-N-methylbenzenesulfonamide]: the IC50 was above 3000 nM. The result for `CNS(=O)(=O)c1ccc(NC2CCCCC2)c(-c2nnn(C3CCCN(S(C)(=O)=O)C3)n2)c1` (centres unmarked) [Compound 62, 4-(cyclohexylamino)-N-methyl-3-(2-(1-(methylsulfonyl)piperidin-3-yl)-2H-tetrazol-5-yl)benzenesulfonamide] reads above 3000 nM. The same measure for `CNS(=O)(=O)c1ccc(NC2CCCCC2)c(-c2nnn(C3CCCN(c4ccccc4)C3)n2)c1` (centres unmarked) [Compound 63, 4-(cyclohexylamino)-N-methyl-3-(2-(1-phenylpiperidin-3-yl)-2H-tetrazol-5-yl)benzenesulfonamide]: above 3000 nM.

In the case of `CNS(=O)(=O)c1ccc(NC2CCCCC2)c(-c2ccccn2)c1` [Compound 64, 4-(cyclohexylamino)-N-methyl-3-(pyridin-2-yl)benzenesulfonamide], the 50% inhibitory concentration (IC50) was at most 100 nM. The same measure for `CNS(=O)(=O)c1ccc(NC2CCCCC2)c(-c2ccncc2)c1` [Compound 65, 4-(cyclohexylamino)-N-methyl-3-(pyridin-4-yl)benzenesulfonamide]: above 3000 nM; for `CNS(=O)(=O)c1ccc(NC2CCCCC2)c(-c2n[nH]c(C)n2)c1` [Compound 66, 4-(cyclohexylamino)-N-methyl-3-(5-methyl-1H-1,2,4-triazol-3-yl)benzenesulfonamide]: 100 to 1000 nM; for `CNS(=O)(=O)c1ccc(NC2CCCCC2)c(-c2nc(C)n(C)n2)c1` [Compound 67, 4-(cyclohexylamino)-3-(1,5-dimethyl-1H-1,2,4-triazol-3-yl)-N-methylbenzenesulfonamide]: at most 100 nM. The same measure for `CNS(=O)(=O)c1ccc(NC2CCCCC2)c(-c2nnn(C3CCN(c4cccnc4)C3)n2)c1` (centres unmarked) [Compound 68, 4-(cyclohexylamino)-N-methyl-3-(2-(1-(pyridin-3-yl)pyrrolidin-3-yl)-2H-tetrazol-5-yl)benzenesulfonamide]: 100 to 1000 nM. The result for `CNS(=O)(=O)c1ccc(NC2CCCCC2)c(-c2ccncn2)c1` [Compound 69, 4-(cyclohexylamino)-N-methyl-3-(pyrimidin-4-yl)benzenesulfonamide] reads 100 to 1000 nM.

As to `CNS(=O)(=O)c1ccc(NC2CCCCC2)c(-c2nnn(C3CN(c4cccnc4)C3)n2)c1` [Compound 70, 4-(cyclohexylamino)-N-methyl-3-(2-(1-(pyridin-3-yl)azetidin-3-yl)-2H-tetrazol-5-yl)benzenesulfonamide], the half-inhibitory concentration (IC50) lay in the range of 100 to 1000 nM. The result for `CNS(=O)(=O)c1ccc(NC2CCCCC2)c(-c2nnn(C3CC3)n2)c1` [Compound 71, 4-(cyclohexylamino)-3-(2-cyclopropyl-2H-tetrazol-5-yl)-N-methylbenzene sulfonamide] reads above 3000 nM; that for `CNS(=O)(=O)c1ccc(NC2CCC(F)(F)CC2)c(-c2nnn(C)n2)c1` [Compound 72, 4-((4,4-difluorocyclohexyl)amino)-N-methyl-3-(2-methyl-2H-tetrazol-5-yl)benzenesulfonamide], at most 100 nM. The result for `CNS(=O)(=O)c1ccc(NC2CCCC(F)(F)C2)c(-c2nnn(C)n2)c1` (centres unmarked) [Compound 73, 4-((3,3-difluorocyclohexyl)amino)-N-methyl-3-(2-methyl-2H-tetrazol-5-yl)benzenesulfonamide] reads at most 100 nM; that for `CNS(=O)(=O)c1ccc(NC2CCCCC2)c(-c2nnn(C3CCCNC3)n2)c1` (centres unmarked) [Compound 74, 4-(cyclohexylamino)-N-methyl-3-(2-(piperidin-3-yl)-2H-tetrazol-5-yl)benzenesulfonamide], 100 to 1000 nM.
